# Results as given in article PMC12140054, “Small glycomimetic antagonists of the cytomegalovirus glycoprotein UL141 prevent binding to TRAIL death receptor” (The Journal of Biological Chemistry, 2025).
# “And” between values parts separate entries of the source, which are not always exact repeats. Equal values may be shown once.
# Assays:
# UL141 D232A mutant = biological target: T1, UL141 D232A mutant (Human cytomegalovirus, UniProt Q6RJQ3, D232A); assay: SPR binding to UL141 alanine mutant D232A; settings: D232A (site C), 0 to 25 μM
# T1 construct: extracellular domain of HCMV UL141 (residues 30–300, Gene ID: 3077418); made in house; host or cells: Sf9 (baculovirus)
# T1 sequence (Q6RJQ3 30-300 D232A): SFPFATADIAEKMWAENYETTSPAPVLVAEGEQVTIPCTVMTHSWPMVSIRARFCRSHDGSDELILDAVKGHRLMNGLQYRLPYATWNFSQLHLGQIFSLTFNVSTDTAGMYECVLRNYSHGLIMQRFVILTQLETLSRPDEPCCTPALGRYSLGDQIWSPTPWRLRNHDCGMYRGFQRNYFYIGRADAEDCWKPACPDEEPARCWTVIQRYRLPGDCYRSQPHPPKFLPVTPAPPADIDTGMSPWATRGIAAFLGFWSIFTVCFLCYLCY
# From the text: (§1) Collectively, the findings from molecular modeling, ELISA, and SPR prompted a more detailed investigation into the binding mechanisms, leading us to explore the possibility of distinct binding sites for UL141 in its interaction with glycomimetic compound 18. To further clarify this, we conducted mutational analysis on the surface residues of UL141 to identify specific binding sites involved in this interaction. The following residues were selected for alanine-scanning mutagenesis, followed by SPR analysis to assess their contribution to the binding affinity of UL141 for 18: Asp91, Glu92, Arg82, Arg80, and Asp37 (site A); Tyr148 and Arg146 (site B); and Arg85, Leu163, Glu164, Pro231, Trp235, and Asp232 (site C) (Fig. 9A). The UL141 mutants were generated through single alanine substitutions and recombinantly produced in the BV-Sf9 system following the same protocol as the WT UL141. […] The binding affinities of the remaining mutants were assessed using SPR, as illustrated in Figure 9. […] Binding interactions were monitored over a 300-s period. […]
# (§2) Figure 9 Mutational analysis of UL141 binding sites for antagonist 18. […] An alternative representation of the same SPR data, showing all measured concentration points, is provided in panel (C), with the structure of compound 18 included for reference. […]
# UL141 W235A mutant = biological target: T2, UL141 W235A mutant (Human cytomegalovirus, UniProt Q6RJQ3, W235A); assay: SPR binding to UL141 alanine mutant W235A; settings: W235A (site C), 0 to 25 μM
# T2 construct: extracellular domain of HCMV UL141 (residues 30–300, Gene ID: 3077418); made in house; host or cells: Sf9 (baculovirus)
# T2 sequence (Q6RJQ3 30-300 W235A): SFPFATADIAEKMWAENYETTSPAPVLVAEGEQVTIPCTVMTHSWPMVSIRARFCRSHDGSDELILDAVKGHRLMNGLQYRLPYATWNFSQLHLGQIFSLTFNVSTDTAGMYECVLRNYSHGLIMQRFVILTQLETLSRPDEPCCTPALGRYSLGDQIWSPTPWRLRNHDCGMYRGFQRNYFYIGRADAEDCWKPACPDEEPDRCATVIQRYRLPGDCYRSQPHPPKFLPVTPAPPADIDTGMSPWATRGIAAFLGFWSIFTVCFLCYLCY
# From the text: as §1, §2
# HCMV UL141 = biological target: T3, HCMV UL141 (Human cytomegalovirus, UniProt Q6RJQ3); assay: biochemical; assay type: binding
# T3 construct: we expressed and purified the full-length recombinant UL141 (amino acids 30–300); made in house
# T3 sequence (Q6RJQ3 30-300): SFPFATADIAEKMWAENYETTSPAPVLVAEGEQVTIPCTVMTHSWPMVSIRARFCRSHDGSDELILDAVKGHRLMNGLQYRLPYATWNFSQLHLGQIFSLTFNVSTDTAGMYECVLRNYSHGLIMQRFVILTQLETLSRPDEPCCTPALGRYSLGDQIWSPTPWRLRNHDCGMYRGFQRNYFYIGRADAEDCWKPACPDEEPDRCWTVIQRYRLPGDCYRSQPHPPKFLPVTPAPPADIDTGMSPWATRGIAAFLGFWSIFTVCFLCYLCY
# Procedure: To prepare HCMV UL141 for binding studies, biotinylation was performed using the BiotinTag Micro Biotinylation Kit (Sigma-Aldrich). Purified UL141 protein (50 μg in 50 μl) was mixed with 50 μl of BiotinTag reaction buffer provided in the kit. Sulfo-NHS-Biotin reagent was freshly prepared by dissolving the vial contents in 1 ml of sterile water. A calculated volume of the biotin reagent was added to achieve a 20:1 M excess of biotin to protein. The reaction mixture was incubated for 30 min at room temperature with gentle mixing to ensure efficient labeling. Following incubation, unreacted biotin was removed using the desalting column included in the kit. The biotinylated UL141 protein was eluted in 50 mM Hepes, pH 7.5, 150 mM NaCl. Biotin incorporation was verified using a colorimetric biotin quantification assay (e.g., HABA assay). The biotinylated protein was then quantified spectrophotometrically using a NanoDrop instrument and concentrated to the desired level for Biacore or ELISA binding studies. The biotinylated protein was stored at 4 °C for short-term use or −80 °C for long-term storage to maintain stability.
# The sensor surface of an SA chip (Cytiva) was preconditioned with HBS-EP buffer (10 mM Hepes, 150 mM NaCl, 3 mM EDTA, 0.005% Tween-20) to stabilize the baseline and remove any loosely bound streptavidin. Before use, the buffer was filtered through a 0.2 μm polystyrene filter and degassed under vacuum for 10 min to eliminate air bubbles. Biotinylated HCMV UL141 was immobilized on the SA chip, maintaining biotinylation at 0.5 to 1.5 mol per mole of protein. Excess biotin was removed via gel filtration. UL141 was injected at 30 μl/min, achieving maximum immobilization (4000–6000 RU), followed by washing with running buffer. Residual unbound proteins were optionally removed with a 2 M NaCl pulse. To ensure optimal SPR signal detection, which depends on the analyte mass bound to the ligand, relatively high amounts of ligand were immobilized on the sensor chip to achieve a significant response signal upon binding of the small compound. […] Regeneration of the chip surface, when necessary, was performed using 5 mM NaOH. Control injections of zero concentrations and duplicate injections of selected concentrations were included to validate surface regeneration. […]
# [1] = UL141 immobilized, substance as analyte, 1:1 Langmuir model
# [2] = UL141 immobilized, substance as analyte, 1:1 Langmuir model, listed as cmp 18
compound,measurement,setting,value
CCC1C(O)C(O)CN1Cc1ccc(I)cc1 (stereo not drawn) [Compound 18],binding to UL141 mutant,UL141 D232A mutant,prevented binding
same,binding to UL141 mutant,UL141 W235A mutant,prevented binding
same,Kd,"HCMV UL141; UL141 immobilized (ligand), substance in solution (analyte), 1:1 Langmuir model, 25 °C",2.93 µM
same,Kd,"HCMV UL141; binding to UL141, SPR",2.93 µM and 2.9 µM
same,Rmax,"HCMV UL141; UL141 immobilized, substance as analyte",19
same,koff,HCMV UL141; [1],0.157 s⁻¹
same,kon,HCMV UL141; [1],53600 M⁻¹ s⁻¹
same,koff,HCMV UL141; [2],(1.57 ± 0.039) × 10^−1 s^−1
same,kon,HCMV UL141; [2],(5.36 ± 0.003) × 10^4 M^−1s^−1
